Measurements taken from PubChem BioAssay (NCI).
“And” between values parts separate entries of the source, which are not always exact repeats. Equal values may be shown once.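 Step 1: Grow cells in 96-well plates. Step 2: Expose to compound for 48 hours at 5 concentrations. Step 3: Interpolate endpoints linearly; if unreached, use highest concentration. At the GI50, growth is halved. TGI: concentration producing complete growth inhibition.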

How the values were obtained:
Experiment in all cases: NCI anticancer screen, dose series, 48 h
HS 578T breast = tested on: HS 578T breast
MDA-MB-231 breast = tested on: MDA-MB-231 breast
LXFL 529 NSCLC = tested on: LXFL 529 NSCLC
M19-MEL melanoma = tested on: M19-MEL melanoma
HOP-18 NSCLC = tested on: HOP-18 NSCLC
PC-3 prostate = tested on: PC-3 prostate
DMS 114 small cell lung = tested on: DMS 114 small cell lung
MDA-MB-435 = tested on: MDA-MB-435
XF 498 CNS = tested on: XF 498 CNS
MCF7 breast = tested on: MCF7 breast

Compound | TGI (LXFL 529 NSCLC) [µM] | TGI (M19-MEL melanoma) [µM] | TGI (HOP-18 NSCLC) [µM] | TGI (DMS 114 small cell lung) [µM] | TGI (XF 498 CNS) [µM] | also measured
C=C(c1ccccc1)[C@@]1(O)CC[C@@H]1N(CC#N)Cc1ccccc1 | 29.5 | 57.1 | 28 | 34.3 |  | TGI (HS 578T breast): 65 µM; TGI (MDA-MB-231 breast): 27.5 µM; TGI (PC-3 prostate): 64.3 µM; TGI (MDA-MB-435): 47.5 µM
Cc1cccc(C)c1NC(=O)C(=O)Nn1c(NN)nc2ccccc2c1=O | > 100 | > 100 | > 100 | > 100 |  | 
N#CC1(C#N)C(C#N)(C#N)C12CCCCCC2 | 29.8 | 47.9 | 30.3 | 43.2 |  | 
CC1OC(n2cc(F)c(=O)[nH]c2=O)C=CC1=O (stereo not drawn) | 31.2 | 36.2 | 34.1 | 32.3 |  | 
O=Cc1c(O)c(C(=O)Nc2ccc3[nH]c(=O)[nH]c3c2)cc2ccccc12 | > 100 | > 100 | > 100 | > 100 |  | 
NC(N)=NS(=O)(=O)c1ccc(Nc2c3ccccc3nc3c(C(=O)Nc4ccc(S(N)(=O)=O)cc4)cccc23)cc1 | 78.5 | > 100 | > 100 | > 100 | 69.8 | 
CC(C)(c1ccccc1)c1ccc(OC#N)cc1 | > 100 | > 100 | > 100 | > 53.9 | > 100 | 
CCN(CC)c1ccc(N=Nc2ccc(-c3nc4ccc[n+](C)c4o3)cc2)cc1 | 16.7 | 16.3 | 38.3 | 15.8 | 23.5 | 
NCCCNCCCCNC(=O)C(O)NC(=O)CCCCCCN=C(N)N (stereo not drawn) |  | 750 | 744 | 581 | 119 | GI50 (HS 578T breast): 2.07 mM; TGI (HS 578T breast): 750 µM and 3990 µM; GI50 (MDA-MB-231 breast): > 2.57 mM; TGI (MDA-MB-231 breast): > 5000 µM; GI50 (PC-3 prostate): 1.59 mM; TGI (PC-3 prostate): > 5000 µM; GI50 (MDA-MB-435): 1.96 mM; TGI (MDA-MB-435): > 3760 µM; GI50 (MCF7 breast): 1.75 mM; TGI (MCF7 breast): 750 µM and > 5000 µM
COc1ccc(C2ON(c3cccc(C)n3)CC=C2C)cc1 (stereo not drawn) | > 100 | > 100 | > 100 | > 100 | > 100 | 
Cn1cc(C(=O)C[n+]2ccccc2)c2ccccc21 |  | > 100 |  | > 100 | > 100 | 
Cc1cc2c(C)nn(Cc3ccc(Cl)cc3)c2c(C#N)c1C | > 100 | > 100 | > 100 |  | > 100 | 
CN(C)CC/[N+]([O-])=C(/c1ccccc1)C12CC3CC(CC(C3)C1)C2 | 39.1 | 27.2 | 35.6 | 36 | 25.9 | 
O=C(c1ccccc1)c1cn(/N=C\c2ccccc2)c(=O)nc1-c1ccccc1 | > 100 | > 100 | > 100 | > 100 |  | 
O=C(O)CCc1nn2c(nc1=O)sc1ccc3ccccc3c12 | > 100 | > 100 | > 100 | > 100 | > 100 | 
N#Cc1cccc(/C=N/N=C(\N)NO)c1 | > 100 | > 100 | > 100 |  | > 100 | 
C=CCC1C(=O)CC2(C)CC(=O)C(CC=C)C12C (stereo not drawn) | > 100 | > 100 | > 100 | > 100 | > 100 | 
CCCSS[C@H]1NC(=O)[C@H]1NC(=O)COc1ccccc1 | 18.3 | 33 | 66.7 | 34.5 | 33.8 | 
